A short description of data set [1]: Chloride reactivity in pH 7 C2H5OH/PBS assessed as change in fluorescence at 50 uM.
Data set [2] is described as follows: Glutathione reactivity in pH 7 C2H5OH/PBS assessed as change in fluorescence at 50 uM.
A short description of data set [3]: Drug accumulation in human HCT116 cells up to 100 uM in presence of Na2S. The data set is classed as ADME, cell-based. Conditions: hct-116.
Data set [4] is described as follows: Cytotoxicity against human HCT-116 cells assessed as cell viability up to 50 uM incubated for 24 hrs by CCK8 assay relative to control. The data set is classed as cell-based. Conditions: read-out: Activity. On the technique in general: Formazan colour is commonly taken as a measure of viable cells.
Data set [5] is described as follows: Cysteine reactivity in pH 7 C2H5OH/PBS assessed as change in fluorescence at 50 uM.
The nature of data set [6]: Nitrate reactivity in pH 7 C2H5OH/PBS assessed as change in fluorescence at 50 uM.
Data set [7] is described as follows: Potassium reactivity in pH 7 C2H5OH/PBS assessed as change in fluorescence at 50 uM.
Data set [8] is described as follows: Iodide reactivity in pH 7 C2H5OH/PBS assessed as change in fluorescence at 50 uM.
The nature of data set [9]: Hydrogen sulphide reactivity in pH 7 C2H5OH/PBS assessed as change in fluorescence at 50 uM.
The nature of data set [10]: Bicarbonate reactivity in pH 7 C2H5OH/PBS assessed as change in fluorescence at 50 uM.
Data set [11] in a line: Phosphoric acid reactivity in pH 7 C2H5OH/PBS assessed as change in fluorescence at 50 uM.
Data set [12] is described as follows: Cytotoxicity against human HCT-116 cells assessed as cell viability at 10 uM incubated for 24 hrs by CCK8 assay relative to control. In kind it is cell-based. Conditions: read-out: Activity.
The nature of data set [13]: […] reactivity in pH 7 C2H5OH/PBS assessed as change in fluorescence at 50 uM.
The nature of data set [14]: Sodium reactivity in pH 7 C2H5OH/PBS assessed as change in fluorescence at 50 uM.
A short description of data set [15]: Thiocyanate reactivity in pH 7 C2H5OH/PBS assessed as change in fluorescence at 50 uM.
The nature of data set [16]: Acetate reactivity in pH 7 C2H5OH/PBS assessed as change in fluorescence at 50 uM.
Data set [17] can be described thus: Sulfate reactivity in pH 7 C2H5OH/PBS assessed as change in fluorescence at 50 uM.
Data set [18] is described as follows: Bromide reactivity in pH 7 C2H5OH/PBS assessed as change in fluorescence at 50 uM.
The nature of data set [19]: Zinc reactivity in pH 7 C2H5OH/PBS assessed as change in fluorescence at 50 uM.

Active and inactive are the calls of the source. The rule behind the calls is not given here.

Regarding `CN(C)c1ccc2c(c1)Sc1cc(N(C)C)ccc1N2c1ccc([N+](=O)[O-])c2nonc12`, the outcome in data set [1], in data set [6], in [7], in data set [8], in data set [10] and in data set [11] was inactive. In addition, the result in [13], in [14], in data set [15], in data set [16], in [17] and in data set [18] was inactive. Besides, the result in data set [19] was inactive. Also, the outcome in data set [2], in data set [5] and in data set [9] was Active. In addition, in [3], the Drug uptake result was “Active”. Also, the viability at 24 h in [4] was 64%. Moreover, the viability at 24 h, 10 µM in data set [12] is > 85%.

Values taken from ChEMBL document CHEMBL4725238, “Methylene blue-based 7-nitro-1,2,3-benzoxadiazole NIR fluorescent probe triggered by HS” (Bioorg Med Chem Lett, 2020).
